From the NIST ThermoML archive (doi:10.1021/je049874h)
Numbers after ± are expanded uncertainties.

Conditions: Liquid

vapor or sublimation pressure (263.15 K)	vapor or sublimation pressure (278.15 K)	vapor or sublimation pressure (293.15 K)	SMILES
69.6 ± 2 kPa	125.1 ± 2 kPa	209.4 ± 2.1 kPa	CCCC [butane]
580.2 ± 2.8 kPa	949.6 ± 3.6 kPa	1473.2 ± 4.8 kPa	FCF [difluoromethane]
